Entries after “also recorded” stand apart in the source; their conditions may differ.
Legend:
[1] = tested on: mouse cancer cell line EG7 expressing OVA; assay: Effect in vivo: EG7 tumor-bearing B6 mice with transferred OT-1 cells; design: species or system C57BL/6J mouse; settings: for frequency of CD45.1+OT-1 cells (OVA specific CD8+ cells) in peripheral blood / expression of CD62L and CD127 in CD45.1+OT-1 cells: 100 μg/mouse tail vein; for frequency of CD45.1+OT-1 cells (OVA specific CD8+ cells) in peripheral blood: 20th day after tumor transplantation (FIG. 5); for expression of CD62L and CD127 in CD45.1+OT-1 cells: 20th day, flow cytometry (FIG. 6); for proliferation of tumor in vivo / tumor volume: 100 μg/mouse through the tail vein, 3 times every other day; for tumor volume: 21st day after transplantation (FIG. 4)
Excerpt: A mouse cancer cell line EG7 (2×10^6) expressing OVA (chicken ovalbumin) was subcutaneously injected into C57BL/6J mouse (B6 mouse) to form a tumor. Five days later, the mouse in which a tumor was formed was irradiated with radiation at 3 Gy, then T cell-receptive OTCD8^+T cells (OT-1 cells) specific for OVA antigen were isolated from CD45.1 positive OT-I transgenic mouse, and this was transferred into the mouse by 2×10^5 through the tail vein. A total of 3 times every other day from the next day, RDH10 inhibitors (Compound No. 1 (RDHI-012) and Compound No. 2 (RDHI-013)) were administered to the mouse at 100 μg/mouse for each through the tail vein. The RDH10 inhibitors were administered to the mouse by being previously stocked in DMSO at 100 μg/50 μl and adjusted to have a total volume of 200 μl by the addition of 150 μl of PBS.
In the experiment, tumor volumes were measured over time. The frequency of OT-1 cells (OVA specific CD8^+T cells) in peripheral blood on the 20th day was measured. Furthermore, the expression intensity of cell surface antigen molecules (CD62L, CD127), which were markers of memory T cells, was analyzed.
The time course in the mean value of tumor volume after tumor transplantation is illustrated in FIG. 4. The error bars indicate the standard error. The tumor volume was determined by major axis×minor axis×height/2.
On the 20th day after the tumor transplantation, the frequency of transferred OT-I cells contained in peripheral blood was analyzed by flow cytometry. OT-I cells were CD45.1 positive and thus were clearly distinguishable from the host B6 mouse (CD45.2 positive)-derived T cells. The representative results are illustrated in FIG. 5.
The expression intensities of CD62L and CD127 in OT-I cells illustrated in FIG. 5 were analyzed by flow cytometry. The mean value and standard error of each expression intensity are illustrated in FIG. 6.

[2] = biological target: T1, Retinol Dehydrogenase 10 (RDH10) (Homo sapiens, UniProt Q8IZV5); assay: Inhibition of RDH10 enzyme activity (microsomal fraction of RDH10-expressed 293T, all-trans retinol to all-trans retinal, HPLC); assay type: biochemical; settings: final concentration of 20 μM; relative to DMSO control (FIG. 1)
T1 construct: expressed in transfected cells; host or cells: 293T (microsomal fraction)
T1 sequence (Q8IZV5 1-341): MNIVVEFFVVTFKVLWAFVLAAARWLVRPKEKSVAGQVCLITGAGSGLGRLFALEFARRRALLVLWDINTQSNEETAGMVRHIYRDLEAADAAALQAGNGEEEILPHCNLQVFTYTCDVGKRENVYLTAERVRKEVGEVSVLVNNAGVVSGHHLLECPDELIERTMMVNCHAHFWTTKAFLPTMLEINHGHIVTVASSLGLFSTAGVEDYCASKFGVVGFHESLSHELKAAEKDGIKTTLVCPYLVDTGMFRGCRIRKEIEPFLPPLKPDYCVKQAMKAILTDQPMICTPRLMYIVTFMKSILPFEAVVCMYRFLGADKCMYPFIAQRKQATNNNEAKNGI
Description: All-trans retinol, BSA, and NAD (nicotinamide adenine dinucleotide) as a coenzyme were added to a buffer for reaction (90 mM potassium phosphate buffer, pH7.4, 40 mM KCl) so as to have final concentrations of 10 μM, 10 μM, and 1 mM respectively. This mixture was taken in siliconized tubes by 200 μl for each, the microsomal fractions separated from 293T and RDH10-expressed 293T were added to separate tubes by 10 μl for each, and the mixtures were allowed to react at 37° C. for 15 minutes. After 200 μl of methanol was added to the reaction mixtures to stop the reaction, retinoid was extracted using hexane and concentrated. The concentrated retinoid was dissolved in 150 μl of acetonitrile, separated by HPLC, and subjected to the detection of ultraviolet light absorption at a wavelength of 350 nm, whereby the substrate (all-trans retinol) and the product (all-trans retinal) were detected. In addition, standard samples (all-trans retinol and all-trans retinal) were separated by HPLC and the retention times of the respective standard samples were determined in advance. The solvent for HPLC was acetonitrile: 50 mM ammonium acetate=75:25. As the separation column, Syhergi 4 μm Hydro-RP 80A (manufactured by Phenomenex) was used. In addition, the flow rate was 2.0 ml/min. The RDH10 enzyme activity was calculated by reading the amount of product per fixed time from the chart of HPLC.
All-trans retinol, BSA, and NAD (nicotinamide adenine dinucleotide) as a coenzyme were added to a buffer for reaction (90 mM potassium phosphate buffer, pH7.4, 40 mM KCl) so as to have final concentrations of 10 μM, 10 μM, and 1 mM respectively. This mixture was taken in siliconized tubes by 200 μl for each, the microsomal fraction separated from RDH10-expressed 293T was added to separate tubes by 10 μl for each. The RDH10 inhibitor dissolved in DMSO was added to each tube so as to have a final concentration of 20 μM, and the same amount of DMSO was added to the control tube. The mixture was allowed to react at 37° C. for 15 to 30 minutes, 200 μl of methanol was added to the reaction mixtures, and then retinoid was extracted using hexane and concentrated. The concentrated retinoid was dissolved in 150 μl of acetonitrile, separated by HPLC, and subjected to the detection of ultraviolet light absorption at a wavelength of 350 nm, whereby the substrate (all-trans retinol) and the product (all-trans retinal) were detected. In addition, standard samples (all-trans retinol and all-trans retinal) were separated by HPLC and the retention times of the respective standard samples were determined in advance. The solvent for HPLC was acetonitrile: 50 mM ammonium acetate=75:25. As the separation column, Syhergi 4 μm Hydro-RP 80A (manufactured by Phenomenex) was used. The flow rate was 2.0 ml/min.
The enzyme activity was determined by the waveform area of the product (all-trans retinal) with respective to the waveform area of the non-reacted substrate (all-trans retinol), and the relative value with respect to the enzyme activity in the control is illustrated in FIG. 1. The error bars indicate SD (standard deviation).

| SMILES | frequency of CD45.1+OT-1 cells (OVA specific CD8+ cells) in peripheral blood [1] | expression of CD62L and CD127 in CD45.1+OT-1 cells [1] | proliferation of tumor in vivo [1] | tumor volume [1] | RDH10 enzyme activity inhibitory action [2] |
| --- | --- | --- | --- | --- | --- |
| COC(=O)[C@@]1(C)CC[C@]2(C)CC[C@]3(C)C(=CC(=O)[C@@H]4[C@@]5(C)CCC(N)C(C)(C)[C@@H]5CC[C@]43C)[C@H]2C1 (stereo partly drawn) [Compound No. 1, (2S,4aS,6aS,6bR,8aR,12aS,12bR,14bS)-methyl 10-amino-2,4a,6a,6b,9,9,12a-heptamethyl-13-oxo-1,2,3,4,4a,5,6,6a,6b,7,8,8a,9,10,11,12,12a,12b,13,14b-icosahydropicene-2-carboxylate] | amplify CD45.1^+OT-1 cells | accelerate the expression of CD62L and CD127 | suppress the proliferation of tumor in vivo | decreased to one several tenths to one several hundredths | relatively potent; also recorded: potent RDH10 enzyme activity inhibitory action |
| COC(=O)[C@@]1(C)CC[C@]2(C)CC[C@]3(C)C(=CC(=O)[C@@H]4[C@@]5(C)CCC(N)C(C)(C)[C@@H]5CC[C@]43C)[C@@H]2C1 (stereo partly drawn) [Compound No. 2, (2S,4aS,6aS,6bR,8aR,12aS,12bR,14bR)-methyl 10-amino-2,4a,6a,6b,9,9,12a-heptamethyl-13-oxo-1,2,3,4,4a,5,6,6a,6b,7,8,8a,9,10,11,12,12a,12b,13,14b-icosahydropicene-2-carboxylate] | amplify CD45.1^+OT-1 cells | accelerate the expression of CD62L and CD127 | suppress the proliferation of tumor in vivo | decreased to one several tenths to one several hundredths | relatively potent; also recorded: potent RDH10 enzyme activity inhibitory action |
